Data as given in patent publication US11337976B2 (Plexxikon Inc., priority 2011, dated 2022).

System: A375 melanoma cells (B-Raf V600E mutation)
Experiment: A375 (A375_P-ERK) cell activity / cell growth inhibition assay
Assay type: cell-based, human
Conditions: Homo sapiens, A-375; A375 cells (text: A375_P-ERK)
Method: Compounds are assessed in a variety of cell based assays. For example human cell lines with B-RafV600E mutation (A375 melanoma, SKMEL3 melanoma, and COLO205 colon adenocarcinoma), as well as tumorigenic cell lines with wild-type B-RAF (SW620 colon adenocarcinoma) or with Ras mutations (SKMEL2 melanoma and IPC298 melanoma).
On day 1, cells are counted, then centrifuged in a conical tube for 5 minutes at 1000 rpm.
On day 2, compound at a maximum concentration of 5 mM is serially diluted 1:3 (e.g. 10 μL with 30 μL dimethyl sulfoxide) for a total of 8 point titration with DMSO as a control. A 1 μL aliquot of each dilution point and control is added to 249 μL growth media and 50 μL is added to a well containing cells, providing 10 μM compound at the maximum concentration point. The cells are incubated for 3 days at 37° C. in 5% CO2.
ATPlite is added 25 μL to each well, shake for 2 minutes, and the cells are incubated at room temperature for 10 minutes, then luminescence is read on Safire reader. The measured luminescence correlates directly with cell number, such that the reading as a function of compound concentration is used to determine the IC50 value.

IC50, < 1 µM:
CN(C)S(=O)(=O)Nc1cccc(C(=O)c2c[nH]c3ncc(-c4cnc(NC5CC5)nc4)cc23)c1F [P-0064, 5-[2-(cyclopropylamino)pyrimidin-5-yl]-3-[3-(dimethylsulfamoylamino)-2-fluoro-benzoyl]-1H-pyrrolo[2,3-b]pyridine]
COCCS(=O)(=O)Nc1cccc(C(=O)c2c[nH]c3ncc(-c4cnc(OC)nc4)cc23)c1F [P-0065, N-[2-fluoro-3-[5-(2-methoxypyrimidin-5-yl)-1H-pyrrolo[2,3-b]pyridine-3-carbonyl]phenyl]-2-methoxy-ethane sulfonamide]
CC(C)CN(C)S(=O)(=O)Nc1cccc(C(=O)c2c[nH]c3ncc(I)cc23)c1F [P-0070, 3-[2-fluoro-3-[[isobutyl(methyl)sulfamoyl]amino]benzoyl]-5-iodo-1H-pyrrolo[2,3-b]pyridine]
CC(C)NS(=O)(=O)Nc1cccc(C(=O)c2c[nH]c3ncc(I)cc23)c1F [P-0071, [2-fluoro-3-(isopropylsulfamoylamino)phenyl]-(5-iodo-1H-pyrrolo[2,3-b]pyridin-3-yl)methanone]
COc1ncc(-c2cnc3[nH]cc(C(=O)c4cccc(NS(=O)(=O)N(C)CC(C)C)c4F)c3c2)cn1 [P-0072, 3-[2-fluoro-3-[[isobutyl(methyl)sulfamoyl]amino]benzoyl]-5-(2-methoxypyrimidin-5-yl)-1H-pyrrolo[2,3-b]pyridine]
COCCN(C)S(=O)(=O)Nc1cccc(C(=O)c2c[nH]c3ncc(-c4cnc(OC)nc4)cc23)c1F [P-0073, 3-[2-fluoro-3-[[2-methoxyethyl(methyl)sulfamoyl]amino]benzoyl]-5-(2-methoxypyrimidin-5-yl)-1H-pyrrolo[2,3-b]pyridine]
COc1ncc(-c2cnc3[nH]cc(C(=O)c4cccc(NS(=O)(=O)N5CCCC5C)c4F)c3c2)cn1 (centres unmarked) [P-0074, N-[2-fluoro-3-[5-(2-methoxypyrimidin-5-yl)-1H-pyrrolo[2,3-b]pyridine-3-carbonyl]phenyl]-2-methyl-pyrrolidine-1-sulfonamide]
CCN(C)S(=O)(=O)Nc1cccc(C(=O)c2c[nH]c3ncc(-c4ccc(N(C)C)nc4)cc23)c1F [P-0076, 5-[6-(dimethylamino)-3-pyridyl]-3-[3-[[ethyl(methyl)sulfamoyl]amino]-2-fluoro-benzoyl]-1H-pyrrolo[2,3-b]pyridine]
CCN(C)S(=O)(=O)Nc1cccc(C(=O)c2c[nH]c3ncc(-c4cnc(NC5CC5)nc4)cc23)c1F [P-0077, 5-[2-(cyclopropylamino)pyrimidin-5-yl]-3-[3-[[ethyl(methyl)sulfamoyl]amino]-2-fluoro-benzoyl]-1H-pyrrolo[2,3-b]pyridine]
CCCN(C)S(=O)(=O)Nc1ccc(F)c(C(=O)c2c[nH]c3ncc(-c4cnc(C5CC5)nc4)cc23)c1F [P-0078, 5-(2-cyclopropylpyrimidin-5-yl)-3-[2,6-difluoro-3-[[methyl(propyl)sulfamoyl]amino]benzoyl]-1H-pyrrolo[2,3-b]pyridine]
COCCN(C)S(=O)(=O)Nc1cccc(C(=O)c2c[nH]c3ncc(-c4ccc(C5(C#N)CC5)cc4)cc23)c1F [P-0080, 5-[4-(1-cyanocyclopropyl)phenyl]-3-[2-fluoro-3-[[2-methoxyethyl(methyl)sulfamoyl]amino]benzoyl]-1H-pyrrolo[2,3-b]pyridine]
COCCN(C)S(=O)(=O)Nc1cccc(C(=O)c2c[nH]c3ncc(-c4cnc(NC5CC5)nc4)cc23)c1F [P-0081, 5-[2-(cyclopropylamino)pyrimidin-5-yl]-3-[2-fluoro-3-[[2-methoxyethyl(methyl)sulfamoyl]amino]benzoyl]-1H-pyrrolo[2,3-b]pyridine]
CN(CC1CC1)S(=O)(=O)Nc1cccc(C(=O)c2c[nH]c3ncc(-c4cnc(C5CC5)nc4)cc23)c1F [P-0084, 3-[3-[[cyclopropylmethyl(methyl)sulfamoyl]amino]-2-fluoro-benzoyl]-5-(2-cyclopropylpyrimidin-5-yl)-1H-pyrrolo[2,3-b]pyridine]
COCCN(C)S(=O)(=O)Nc1cccc(C(=O)c2c[nH]c3ncc(-c4cnc(C5CC5)nc4)cc23)c1F [P-0085, 5-(2-cyclopropylpyrimidin-5-yl)-3-[2-fluoro-3-[[2-methoxyethyl(methyl)sulfamoyl]amino]benzoyl]-1H-pyrrolo[2,3-b]pyridine]
COc1ncc(-c2cnc3[nH]cc(C(=O)c4cccc(NS(=O)(=O)N5CC(F)(F)C5)c4F)c3c2)cn1 [P-0088, 3,3-difluoro-N-[2-fluoro-3-[5-(2-methoxypyrimidin-5-yl)-1H-pyrrolo[2,3-b]pyridine-3-carbonyl]phenyl]azetidine-1-sulfonamide]
CCN(C)S(=O)(=O)Nc1cccc(C(=O)c2c[nH]c3ncnc(N[C@@H](C)C4CC4)c23)c1F [P-0089, 4-[[(1 S)-1-cyclopropylethyl]amino]-5-[3-[[ethyl(methyl)sulfamoyl]amino]-2-fluoro-benzoyl]-7H-pyrrolo[2,3-d]pyrimidine]
N#Cc1ccc(-c2cnc3[nH]cc(C(=O)c4cccc(NS(=O)(=O)N5CCCC5)c4F)c3c2)cc1 [P-0090, N-[3-[5-(4-cyanophenyl)-1H-pyrrolo[2,3-b]pyridine-3-carbonyl]-2-fluoro-phenyl]pyrrolidine-1-sulfonamide]
Cc1ncc(-c2cnc3[nH]cc(C(=O)c4cccc(NS(=O)(=O)N5CCCC5)c4F)c3c2)cn1 [P-0092, N-[2-fluoro-3-[5-(2-methylpyrimidin-5-yl)-1H-pyrrolo[2,3-b]pyridine-3-carbonyl]phenyl]pyrrolidine-1-sulfonamide]
N#Cc1cncc(-c2cnc3[nH]cc(C(=O)c4cccc(NS(=O)(=O)N5CCCC5)c4F)c3c2)c1 [P-0093, N-[3-[5-(5-cyano-3-pyridyl)-1H-pyrrolo[2,3-b]pyridine-3-carbonyl]-2-fluoro-phenyl]pyrrolidine-1-sulfonamide]
N#Cc1ccc(-c2cnc3[nH]cc(C(=O)c4cccc(NS(=O)(=O)N5CCCC5)c4F)c3c2)cn1 [P-0094, N-[3-[5-(6-cyano-3-pyridyl)-1H-pyrrolo[2,3-b]pyridine-3-carbonyl]-2-fluoro-phenyl]pyrrolidine-1-sulfonamide]
O=C(c1cccc(NS(=O)(=O)N2CCCC2)c1F)c1c[nH]c2ncc(-c3ccc(C(F)(F)F)nc3)cc12 [P-0095, N-[2-fluoro-3-[5-[6-(trifluoromethyl)-3-pyridyl]-1H-pyrrolo[2,3-b]pyridine-3-carbonyl]phenyl]pyrrolidine-1-sulfonamide]
Cc1ncc(-c2cnc3[nH]cc(C(=O)c4cccc(NS(=O)(=O)N(C)C)c4F)c3c2)cn1 [P-0097, 3-[3-(dimethylsulfamoylamino)-2-fluoro-benzoyl]-5-(2-methylpyrimidin-5-yl)-1H-pyrrolo[2,3-b]pyridine]
CN(C)S(=O)(=O)Nc1cccc(C(=O)c2c[nH]c3ncc(-c4cncc(C#N)c4)cc23)c1F [P-0098, 5-(5-cyano-3-pyridyl)-3-[3-(dimethylsulfamoylamino)-2-fluoro-benzoyl]-1H-pyrrolo[2,3-b]pyridine]
CN(C)S(=O)(=O)Nc1cccc(C(=O)c2c[nH]c3ncc(-c4ccc(C#N)nc4)cc23)c1F [P-0099, 5-(6-cyano-3-pyridyl)-3-[3-(dimethylsulfamoylamino)-2-fluoro-benzoyl]-1H-pyrrolo[2,3-b]pyridine]
CCN(C)S(=O)(=O)Nc1cccc(C(=O)c2c[nH]c3ncc(-c4cnc(C#N)nc4)cc23)c1F [P-0100, 5-(2-cyanopyrimidin-5-yl)-3-[3-[[ethyl(methyl)sulfamoyl]amino]-2-fluoro-benzoyl]-1H-pyrrolo[2,3-b]pyridine]
CCN(C)S(=O)(=O)Nc1cccc(C(=O)c2c[nH]c3ncc(-c4ccc(C#N)nc4)cc23)c1F [P-0102, 5-(6-cyano-3-pyridyl)-3-[3-[[ethyl(methyl)sulfamoyl]amino]-2-fluoro-benzoyl]-1H-pyrrolo[2,3-b]pyridine]
CCN(C)S(=O)(=O)Nc1cccc(C(=O)c2c[nH]c3ncc(-c4ccc(C(C)(C)O)cc4)cc23)c1F [P-0104, 3-[3-[[ethyl(methyl)sulfamoyl]amino]-2-fluoro-benzoyl]-5-[4-(1-hydroxy-1-methyl-ethyl)phenyl]-1H-pyrrolo[2,3-b]pyridine]
CN(C)c1ncc(-c2cnc3[nH]cc(C(=O)c4cccc(NS(=O)(=O)N(C)C)c4F)c3c2)cn1 [P-0106, 5-[2-(dimethylamino)pyrimidin-5-yl]-3-[3-(dimethylsulfamoylamino)-2-fluoro-benzoyl]-1H-pyrrolo[2,3-b]pyridine]
CN(C)S(=O)(=O)Nc1cccc(C(=O)c2c[nH]c3ncc(-c4cnc(N5CCCC5)nc4)cc23)c1F [P-0107, 3-[3-(dimethylsulfamoylamino)-2-fluoro-benzoyl]-5-(2-pyrrolidin-1-ylpyrimidin-5-yl)-1H-pyrrolo[2,3-b]pyridine]
